# Assay results as given in paper PMC11979881, “Engineering Multifunctional Peptide-Decorated Nanofibers for Targeted Delivery of Temozolomide across the Blood–Brain Barrier” (Molecular Pharmaceutics, 2025).
# Experiments:
# [1] = tested on: human brain microvascular endothelial cells (HBMEC); assay: PrestoBlue cell viability, HBMEC; type: cell-based; details: treated every 24 h for 3 days, TMZ 10 μM
# Description: To verify whether NF-t or NF-TMZ influenced healthy brain endothelial cells constitutively expressing EGFRs, the experiment described above was conducted on human brain microvascular endothelial cells (HBMEC) and brain endothelial cells (bEnd.3) to assess their effects . Cells were seeded in a 96-well plate (15,000 cells per well) in their appropriate culture medium. After 24 h, cells were treated likewise with U-118 and U-87 cells with 10 μM TMZ, both conjugated and unconjugated with NF-t. The control was performed on cells cultured only in the medium. Under the same conditions as for 2D cells, the PrestoBlue assay was performed. […] TMZ release from NF-TMZ was evaluated using matrix metalloproteinase-9 (MMP-9). In particular, NF-TMZ was prepared as reported before and hydrated in the following buffer solution: 50 mM HEPES, 200 mM NaCl, 10 mM CaCl2, and 1 mM ZnCl2, at pH 7. The MMP-9 was preactivated with APMA 100 μM and Tris-HCl 50 mM (pH 7.2) and was left at 37 °C for 3 h.[33],[35] Once activated, MMP-9 was added to NF-TMZ and the culture medium at a final concentration of 40 nM; and cells were incubated for 72 h.
# 3D U-87 [2] = assay: Annexin V-FITC/Propidium Iodide assay, 3D U-87; type: cell-based, human; details: TMZ 10 μM
# Description: (§1) To identify apoptotic and necrotic cells, Annexin V-FITC/Propidium Iodide (PI) assay was performed according to the manufacturer’s protocol. Annexin V highlights apoptotic cells by binding to phosphatidylserine (PS) on their membranes . Propidium Iodide (PI) binds to the DNA of necrotic cells, as it is not permeable to the cell membrane. Cells lose the membrane integrity, Annexin V-FITC/PI can enter the cells. After the 3D cell treatment, cells were stained with Annexin V-FITC/PI for 20 min in the dark. After washing with PBS, nuclei were labeled with 4′,6-diamidino-2-phenylindole (DAPI) for 5 min. Images of the 3D cells were acquired using the JuLi Stage_RealTime Cell History Recorder microscope with a 10x objective, using different channels: RFP, GFP, and DAPI. The images were corrected for brightness and contrast using Fiji software and analyzed to evaluate morphological parameters after treatments. For each experimental condition, three different assays were repeated.
# U-118 MG [3] = details: U-118, 72 h, same experimental conditions; cited from earlier work
# Description: In 2D experiments, we observed a remarkable effect on U-118 cells with all nanofibers carrying TMZ at different concentrations, which increased proportionally with the concentration. In particular, treatment with NF-TMZ (carrying TMZ at a concentration of 10 μM) caused a decrease in cell viability at 72 h by more than 40%, whereas a similar decrease (under the same experimental conditions) is reported in the literature with a TMZ concentration of 100 μM.[41] U-87 cells responded less to the treatment, but we still observed a reduction in cell viability of 30%. Indeed, the experiments performed ...
# 3D U-118 [4] = assay: Annexin V-FITC/Propidium Iodide assay, 3D U-118; type: cell-based, human; details: 3D U-118, 24 h, TMZ 10 μM
# Description: as §1
# 3D U-87 [5] = assay: PrestoBlue viability on 3D dynamic in vitro BBB model, 3D U-87; type: cell-based, human; details: 3D U-87 in lower chamber, injection into upper chamber, TMZ 10 μM, 72 h
# Description: (§2) To evaluate the effects of NF-TMZ on fluid-dynamically cultured 3D GBM cells, we set up different bioreactors containing HBMEC and hPC-PL cells in the upper chamber and 3D U-118 cells or 3D U-87 cells in the lower chamber. NF-TMZ (10 μM), NF-t, and free TMZ (10 μM) were injected into the upper chamber, and their effects were evaluated after 72 h using the PrestoBlue viability assay. Briefly, 72 h after treatment, spheroids in the lower chamber were taken out and placed inside 48-well plates, and the PrestoBlue viability reagent (1:10) was added for 1.5 h. The absorbance was quantified using a Bio-Tek Synergy HT Microplate Reader. The control bioreactor was performed with HBMEC and hPC–PL cells in the upper chamber; and 3D U-118 MG cells and 3D U-87 MG cells in the lower chamber without treatment.
# U118 MG spheroids = assay: Spheroid shape descriptors (Fiji), U118 MG; type: cell-based, human
# Description: as §1
# (§3) To evaluate shape descriptors, 10 spheroids for each formulation were imaged and analyzed by Fiji software (Table 4).
# (§4) Table 4 was obtained using Fiji software, for U-118 and U-87 spheroids treated with NF-TMZ, free TMZ, and NF-t, compared with controls (no treatment), ***p < 0.001. Circularity was calculated as [drawing 3] . Values of 1.0 indicate a perfect circle; while as the value approaches 0.0, it indicates an increasingly elongated shape. Feret’s diameter was the maximum caliper of the object, also known as the longest distance between any two points along the selection boundary. The minimum caliper diameter is indicated as Min Feret. The aspect ratio of the particle’s fitted ellipse was calculated as [drawing 4] and is indicated as AR. Roundness was calculated as 4 [drawing 5] and is the inverse of AR. Shape descriptors describe the eventual changes in spheroid morphology following treatment.
# [6] = cited from earlier work
# Source text: GBM is the most aggressive type of brain cancer, with a 5-year survival rate of less than 5% and a median survival period of 12–15 months.[9],[10] The standard treatment, consisting of surgery followed by chemotherapy with temozolomide (TMZ) and radiation therapy, marginally improves survival.
# U-87 MG = assay: PrestoBlue cell viability, 2D U-87; type: cell-based, human
# Description: (§5) Glioblastoma/astrocytoma U-87 MG (U-87) and glioma U-118 MG (U-118) cell lines derived from the human brain were plated in 25 cm^2 flasks. They were grown individually in Dulbecco’s modified eagle’s medium high glucose (DMEM), supplemented with fetal bovine serum (FBS, 10%), penicillin/streptomycin (P/S, 100 U/mL), and L-glutamine (L/GLUT, 2 mM, Sigma-Aldrich), in a humidified incubator (37 °C, 5% CO2). At 70% confluence, cells were individually detached with a 0.25% solution of trypsin-EDTA.
# (§6) For 2D experiments, U-118 and U-87 cells were seeded in 48-well plates, at approximately 20,000 cells per well in DMEM culture medium with 10% FBS, under standard cell culture conditions (5% CO2, 37 °C). Once the cells were attached, they were treated for 24, 48, and 72 h with 1) NF-TMZ carrying TMZ at different concentrations: 2.5, 5, 7.5, and 10 μM; 2) NF-t; 3) free TMZ at different concentrations (0, 10, 100, and 250 μM). […] At the end of the incubation time, a cell viability assay was performed using the PrestoBlue assay: the cells were incubated for 1 h according to the manufacturer’s protocol, and then absorbance was measured at 570 nm (with 600 nm as the reference wavelength) using a Bio-Tek Synergy HT Microplate reader.
# 3D U-118 [7] = assay: PrestoBlue viability on 3D dynamic in vitro BBB model, 3D U-118; type: cell-based, human; details: 3D U-118 in lower chamber, injection into upper chamber, TMZ 10 μM, 72 h
# Description: as §2
# U-118 MG [8] = assay: PrestoBlue cell viability, 2D U-118; type: cell-based, human
# Description: as §5, §6
# 3D U-87 [9] = assay: PrestoBlue cell viability, 3D U-87 spheroids; type: cell-based, human; details: 3D U-87, 10 μM TMZ, 72 h, treated every 24 h
# Description: Once the appropriate concentration corresponding to the greatest lowering of cell viability was established, we proceeded with the 3D U-118 and 3D U-87 cell assays. To produce 3D U-118 and 3D U-87 cells, we used the hanging drop method. Briefly, 10,000 cells per drop were placed in the lid of a 100 mm dish, creating a hydration chamber by placing PBS in the dish bottom. After incubating for 48 h at 37 °C/5% CO2, the aggregates were transferred to a 48-well plate (5 spheroids per well: approximately 50,000 cells/well). The 3D cells were treated every 24 h for 3 days. Each treatment was conducted on 10 spheroids: approximately 100,000 cells for each experimental class: 1) control; 2) NF-t; 3) NF-TMZ (10 μM); 4) free TMZ (10 μM). At the end of the incubation time, a cell viability assay was performed with using the PrestoBlue assay: the cells were incubated for 90 min, according to the manufacturer’s protocol. At the end of the incubation time, we measured the absorbance at 570 nm (with 600 nm as the reference wavelength) using a Bio-Tek Synergy HT Microplate reader.
# U87 MG spheroids = assay: Spheroid shape descriptors (Fiji), U87 MG; type: cell-based, human
# Description: as §1, §3, §4
# [10] = U118 MG spheroids, 10 spheroids per formulation, Fiji, ***p < 0.001 vs controls
# [11] = U87 MG spheroids, 10 spheroids per formulation, Fiji
smiles,measurement,setting,value
"Cn1nnc2c(C(N)=O)ncn2c1=O [TMZ, temozolomide]",cell viability versus control,[1],no significant difference
same,apoptotic cells (Annexin V) compared to the control,"3D U-87 [2]; 3D U-87, 24 h",four-time increasing level
same,necrotic cells (PI),"3D U-87 [2]; 3D U-87, 48 h",increase in necrotic cells
same,TMZ concentration reported for a similar decrease in cell viability,U-118 MG [3],100 µM
same,apoptotic cells (Annexin V),3D U-118 [4],initial burst of apoptosis
same,lower viability compared with the control,3D U-87 [5],13%
same,spheroid surface area compared to control and NF-t,U118 MG spheroids; 3D U-118,significantly lower
same,Circularity,"U118 MG spheroids; U118 MG spheroids, 10 spheroids per formulation, Fiji",0.425
same,Feret’s diameter,U118 MG spheroids; [10],512.096
same,Min Feret,U118 MG spheroids; [10],397.785
same,AR,"U118 MG spheroids; U118 MG spheroids, aspect ratio of fitted ellipse, Fiji",1.298
same,Round,"U118 MG spheroids; U118 MG spheroids, roundness, Fiji",0.802
same,extravasation from blood to brain,[6],~20%
same,plasma half-life,[6],2 h
same,water solubility,[6],poor water solubility
same,free TMZ concentration giving a similar effect as NF-TMZ (TMZ 10 μM),U-87 MG; 2D U-87,100 to 250 µM
same,concentrations at which TMZ acted on cell survival,"U-87 MG; 2D U-87, 24- and 48-h treatments",≥ 100 µM
same,lower viability compared with the control,3D U-118 [7],< 20%
same,free TMZ concentration giving a similar effect as NF-TMZ (TMZ 10 μM),U-118 MG [8],100 to 250 µM
same,decrease in viability compared to the control,3D U-87 [9],55%
same,spheroid surface area compared to control and NF-t,U87 MG spheroids; 3D U-87,significantly lower
same,Circularity,U87 MG spheroids; [11],0.280
same,Feret’s diameter,U87 MG spheroids; [11],841.910
same,Min Feret,U87 MG spheroids; [11],612.895
same,AR,"U87 MG spheroids; U87 MG spheroids, aspect ratio of fitted ellipse, Fiji",1.404
same,Round,"U87 MG spheroids; U87 MG spheroids, roundness, Fiji",0.732
